In patent publication US20220125051A1, “PRE-HARVEST DESICCATION METHOD” (SYNGENTA CROP PROTECTION AG, priority 2019, published 2022) one finds pest or weed control data, which are given here for 14 compounds.

Assay in all cases: Post-emergence efficacy, Method A
Holding throughout (type): in vivo

Assay [1] relates to Digitaria sanguinalis (DIGSA). To be noted: Digitaria sanguinalis, post-emergence, 312 h; Application rate 500 g/Ha; evaluated after 13 days; 100=total damage to plant, 0=no damage to plant; read-out: Control of weed species after post-emergence application, DIGSA. A digest of the protocol: (§1)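 Plants raised 14 days from seed in standard soil in a glasshouse (24/16 °C day/night, 14 h light, 65% humidity) were sprayed with compound dissolved in acetone plus IF50 solvent/emulsifier (50 g/l solution), diluted with 0.25% or 1% Empicol ESC70 + 1% ammonium sulphate. Damage was scored visually after 13 days (0 = none, 100 = total).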

Another assay deals with Setaria faberi (SETFA). To be noted: Setaria faberi, post-emergence, 312 h; Application rate 500 g/Ha; evaluated after 13 days; 100=total damage to plant, 0=no damage to plant; read-out: Control of weed species after post-emergence application, SETFA. A digest of the protocol: as §1
Assay [2] concerns Echinochloa crus-galli (ECHCG). To be noted: Echinochloa crus-galli, post-emergence, 312 h; Application rate 500 g/Ha; evaluated after 13 days; 100=total damage to plant, 0=no damage to plant; read-out: Control of weed species after post-emergence application, ECHCG. A digest of the protocol: as §1
Assay [3] deals with Ipomoea hederacea (IPOHE). The settings on record: Ipomoea hederacea, post-emergence, 312 h, Application rate 500 g/Ha; evaluated after 13 days; 100=total damage to plant, 0=no damage to plant; read-out: Control of weed species after post-emergence application, IPOHE. A digest of the protocol:
as §1

A further assay relates to Eleusine indica (ELEIN). To be noted: Eleusine indica, post-emergence, 312 h; Application rate 500 g/Ha; evaluated after 13 days; 100=total damage to plant, 0=no damage to plant; read-out: Control of weed species after post-emergence application, ELEIN. A digest of the protocol:
as §1

Assay [4] relates to Chenopodium album (CHEAL). The settings on record: Chenopodium album, post-emergence, 312 h; Application rate 500 g/Ha; evaluated after 13 days; 100=total damage to plant, 0=no damage to plant; read-out: Control of weed species after post-emergence application, CHEAL. A digest of the protocol: as §1
For assay [5], the system named is Amaranthus palmeri (AMAPA). To be noted: Amaranthus palmeri, post-emergence, 312 h; Application rate 500 g/Ha; evaluated after 13 days; 100=total damage to plant, 0=no damage to plant; read-out: Control of weed species after post-emergence application, AMAPA. A digest of the protocol: as §1
The subject of assay [6] is Euphorbia heterophylla (EPHHL). To be noted: Euphorbia heterophylla, post-emergence, 312 h; Application rate 500 g/Ha; evaluated after 13 days; 100=total damage to plant, 0=no damage to plant; read-out: Control of weed species after post-emergence application, EPHHL. The essentials: as §1
Another assay relates to Lolium perenne (LOLPE). To be noted: Lolium perenne, post-emergence, 312 h, Application rate 500 g/Ha; evaluated after 13 days; 100=total damage to plant, 0=no damage to plant; read-out: Control of weed species after post-emergence application, LOLPE. The essentials: as §1

As to `Cc1cc(F)cnc1-c1cc[n+](CCS(=O)(=O)[O-])nc1` [Compound A104], the pest or weed control at 500 g/ha in [1] is 30%; with Setaria faberi (SETFA), 30%; in assay [2], 30%; in [3], 30%; in the assay with Eleusine indica (ELEIN) it was 50%; in assay [4], 0%. Further, the values for the pest or weed control at 500 g/ha (in [5]; in assay [6]; in the assay on Lolium perenne (LOLPE)) were 10%, 20% and 10%, respectively.

`COc1cc(C)nc(-c2cc[n+](CCC(=O)[O-])nc2)n1` [Compound A105]: the pest or weed control at 500 g/ha in assay [1] was 60%; in the assay with Setaria faberi (SETFA), 90%; in [2] it was 40%; in assay [3] it was 0%; in the assay on Eleusine indica (ELEIN) it was 20%; in assay [4], 20%. In addition, the pest or weed control at 500 g/ha was 90% in assay [5], 50% in [6] and 50% with Lolium perenne (LOLPE).

For the compound `COc1nc(-c2cc[n+](CCC(=O)[O-])nc2)ncc1C` [Compound A106], the pest or weed control at 500 g/ha in assay [1] worked out at 60%; in the assay with Setaria faberi (SETFA), 60%; in [2] it was 50%; in [3], 10%; in the assay with Eleusine indica (ELEIN) it was 80%; in [4], 20%. Also, the pest or weed control at 500 g/ha was 80% in assay [5], 20% in assay [6] and 60% in the assay with Lolium perenne (LOLPE).

In the case of `O=S(=O)([O-])CC[n+]1ccc(-c2ccnc(C(F)(F)F)n2)cn1` [Compound A108], the pest or weed control at 500 g/ha worked out at 50% in assay [1]; 60% with Setaria faberi (SETFA); 40% in assay [2]; 70% in assay [3]; 60% in the assay with Eleusine indica (ELEIN); 80% in [4]. Moreover, the pest or weed control at 500 g/ha worked out at 40% in assay [5], 80% in [6] and 40% in the assay with Lolium perenne (LOLPE).

Regarding `O=S(=O)([O-])CC[n+]1ccc(-c2cc(C(F)(F)F)ncn2)cn1` [Compound A109], the pest or weed control at 500 g/ha in assay [1] is 50%; in the assay with Setaria faberi (SETFA), 30%; in assay [2], 40%; in assay [3] it was 50%; in the assay on Eleusine indica (ELEIN) it was 50%; in assay [4] it was 60%. Also, the pest or weed control at 500 g/ha came to 60% in assay [5], 60% in assay [6] and 30% in the assay with Lolium perenne (LOLPE).

For the compound `O=S(=O)([O-])CC[n+]1ccc(-c2cncc(C(F)(F)F)n2)cn1` [Compound A110], the pest or weed control at 500 g/ha in assay [1] came out at 40%; with Setaria faberi (SETFA), 50%; in assay [2] it was 50%; in assay [3] it was 80%; in the assay with Eleusine indica (ELEIN), 90%; in [4], 100%. Further, the pest or weed control at 500 g/ha in [5] came out at 100%; in [6], 80%; in the assay on Lolium perenne (LOLPE) it was 50%.

Consider `O=S(=O)([O-])CC[n+]1ccc(-c2cnc(C(F)(F)F)cn2)cn1` [Compound A112], for which the pest or weed control at 500 g/ha was 40% in assay [1]; 70% in the assay with Setaria faberi (SETFA); 40% in assay [2]; 40% in [3]; 50% in the assay on Eleusine indica (ELEIN); 100% in [4]. The pest or weed control at 500 g/ha in assay [5] was 100%; in [6], 80%; in the assay on Lolium perenne (LOLPE) it was 40%.

As to `CCOP(=O)(O)CC[n+]1ccc(-c2ncccn2)cn1` [Compound A113, ethoxy-[2-(4-pyrimidin-2-ylpyridazin-1-ium-1-yl)ethyl]phosphinate], the pest or weed control at 500 g/ha in [1] was 60%; with Setaria faberi (SETFA), 50%; in assay [2] it was 60%; in [3], 60%; in the assay with Eleusine indica (ELEIN), 40%; in assay [4], 90%. Moreover, the pest or weed control at 500 g/ha in assay [5] is 40%; in assay [6] it was 100%; with Lolium perenne (LOLPE) it was 10%.

As to `CC(C)(C[n+]1ccc(-c2ncccn2)cn1)S(=O)(=O)[O-]` [Compound A114, 2-methyl-1-(4-pyrimidin-2-ylpyridazin-1-ium-1-yl)propane-2-sulfonate], the pest or weed control at 500 g/ha was 80% in assay [1]; 40% with Setaria faberi (SETFA); 60% in assay [2]; 60% in [3]; 90% in the assay on Eleusine indica (ELEIN); 60% in assay [4]. The pest or weed control at 500 g/ha turned out to be 100% in assay [5], 80% in assay [6] and 70% in the assay with Lolium perenne (LOLPE).

Regarding `COc1ccc(-c2cc[n+](CCCS(=O)(=O)[O-])nc2)nn1` [Compound A115], the pest or weed control at 500 g/ha in assay [1] came out at 30%; with Setaria faberi (SETFA), 60%; in assay [2], 50%; in [3], 40%; with Eleusine indica (ELEIN), 30%; in assay [4], 100%. The pest or weed control at 500 g/ha was determined as 100% in assay [5], 30% in assay [6] and 30% in the assay with Lolium perenne (LOLPE).

Take `O=c1cc(-c2cc[n+](CCCS(=O)(=O)[O-])nc2)nc[nH]1` [Compound A116]: the pest or weed control at 500 g/ha in assay [1] was 30%; in the assay with Setaria faberi (SETFA) it was 30%; in [2] it was 20%; in assay [3], 10%; in the assay with Eleusine indica (ELEIN) it was 20%; in [4], 80%. The values for the pest or weed control at 500 g/ha (in assay [5]; in [6]; with Lolium perenne (LOLPE)) were 100%, 50% and 10%, respectively.

With `Cc1cc(-c2cc[n+](CCS(=O)(=O)[O-])nc2)ncn1` [Compound A117], the pest or weed control at 500 g/ha in assay [1] came to 70%; in the assay on Setaria faberi (SETFA), 100%; in assay [2], 90%; in assay [3] it was 80%; in the assay with Eleusine indica (ELEIN), 90%; in assay [4] it was 90%. Also, the pest or weed control at 500 g/ha worked out at 90% in assay [5], 100% in assay [6] and 50% with Lolium perenne (LOLPE).

Consider `O=C(O)CC[n+]1ccc(-c2ccnc(C(F)(F)F)n2)cn1` [Compound A118], for which the pest or weed control at 500 g/ha in assay [1] was determined as 90%; in the assay on Setaria faberi (SETFA), 70%; in [2], 40%; in [3], 60%; in the assay with Eleusine indica (ELEIN) it was 70%; in assay [4], 80%. The figures for the pest or weed control at 500 g/ha (in assay [5]; in assay [6]; in the assay with Lolium perenne (LOLPE)) were 80%, 90% and 90%, respectively.

As for `O=C(O)CC[n+]1ccc(-c2cc(C(F)(F)F)ncn2)cn1` [Compound A119], the pest or weed control at 500 g/ha is 40% in assay [1]; 40% in the assay with Setaria faberi (SETFA); 30% in assay [2]; 50% in assay [3]; 30% in the assay with Eleusine indica (ELEIN); 100% in assay [4]. Also, the values for the pest or weed control at 500 g/ha (in assay [5]; in [6]; in the assay with Lolium perenne (LOLPE)) were 100%, 70% and 30%, respectively.
